Data published in PubChem BioAssay AID330 (DTP/NCI, 2004).
“And” between values parts separate entries of the source, which are not always exact repeats. Equal values may be shown once. Inconclusive results and toxic doses are left out.

Tested on: P388 leukemia ip, CD2F1 mice, survival T/C
Test: NCI In Vivo Anticancer Drug Screen. Data for tumor model P388 Leukemia (intraperitoneal) in CD2F1 (CDF1) mice
Settings: endpoint: median survival time, higher = longer survival
In short: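 Mice carrying the transplanted tumor received test compound or vehicle. Survival was recorded in each group, and the value is the treated-group measurement divided by that of the vehicle-treated control group.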

[1] = dose: 100.0 mg/kg/injection, schedule: Q04DX003 (ip), vehicle: Klucel (hydroxypropylcellulose) (HPC)
[2] = dose: 60.0 mg/kg/injection, schedule: Q01DX005 (ip), vehicle: saline with Tween-80
[3] = dose: 120.0 mg/kg/injection, schedule: Q01DX005 (ip), vehicle: saline with Tween-80
[4] = dose: 240.0 mg/kg/injection, schedule: Q01DX005 (ip), vehicle: saline with Tween-80
[5] = dose: 50.0 mg/kg/injection, schedule: Q01DX005 (ip), vehicle: saline
[6] = dose: 100.0 mg/kg/injection, schedule: Q01DX005 (ip), vehicle: saline
[7] = dose: 200.0 mg/kg/injection, schedule: Q01DX005 (ip), vehicle: saline
[8] = dose: 200.0 mg/kg/injection, schedule: Q04DX003 (ip), vehicle: Klucel (hydroxypropylcellulose) (HPC)
[9] = dose: 400.0 mg/kg/injection, schedule: Q04DX003 (ip), vehicle: Klucel (hydroxypropylcellulose) (HPC)
[10] = dose: 50.0 mg/kg/injection, schedule: Q01DX009 (ip), vehicle: Klucel (hydroxypropylcellulose) (HPC)
[11] = dose: 100.0 mg/kg/injection, schedule: Q01DX009 (ip), vehicle: Klucel (hydroxypropylcellulose) (HPC)
[12] = dose: 200.0 mg/kg/injection, schedule: Q01DX009 (ip), vehicle: Klucel (hydroxypropylcellulose) (HPC)
[13] = dose: 50.0 mg/kg/injection, schedule: Q01DX005 (ip), vehicle: Klucel (hydroxypropylcellulose) (HPC)
[14] = dose: 100.0 mg/kg/injection, schedule: Q01DX005 (ip), vehicle: Klucel (hydroxypropylcellulose) (HPC)
[15] = dose: 200.0 mg/kg/injection, schedule: Q01DX005 (ip), vehicle: Klucel (hydroxypropylcellulose) (HPC)

## CCSC1=C(SCC)C1SCC
dose: 12.5 mg/kg/injection, schedule: Q04DX003 (ip), vehicle: Klucel (hydroxypropylcellulose) (HPC)
  T/C: 107 % of control
dose: 25.0 mg/kg/injection, schedule: Q04DX003 (ip), vehicle: Klucel (hydroxypropylcellulose) (HPC)
  T/C: 107 % of control
dose: 50.0 mg/kg/injection, schedule: Q04DX003 (ip), vehicle: Klucel (hydroxypropylcellulose) (HPC)
  T/C: 121 % of control
[1]
  T/C: 113 % of control

## Cc1c2c(c(C)c3c1[nH]c1ccccc13)C(C#N)N(C(=O)c1ccccc1)C=C2 (stereo not drawn)
dose: 6.25 mg/kg/injection, schedule: Q04DX003 (ip), vehicle: distilled water + Tween-80
  T/C: 100 % of control
dose: 12.5 mg/kg/injection, schedule: Q04DX003 (ip), vehicle: distilled water + Tween-80
  T/C: 102 % of control
dose: 25.0 mg/kg/injection, schedule: Q04DX003 (ip), vehicle: distilled water + Tween-80
  T/C: 90 % of control
dose: 50.0 mg/kg/injection, schedule: Q04DX003 (ip), vehicle: distilled water + Tween-80
  T/C: 88 % of control
dose: 100.0 mg/kg/injection, schedule: Q04DX003 (ip), vehicle: distilled water + Tween-80
  T/C: 90 % of control
dose: 200.0 mg/kg/injection, schedule: Q04DX003 (ip), vehicle: distilled water + Tween-80
  T/C: 94 % of control

## CC1CNC2(c3ccccc3)CSC=C(c3ccccc3)N12 (stereo not drawn)
dose: 100.0 mg/kg/injection, schedule: Q04DX002 (ip), vehicle: saline with Tween-80
  T/C: 98 % of control
dose: 200.0 mg/kg/injection, schedule: Q04DX002 (ip), vehicle: saline with Tween-80
  T/C: 101 % of control
dose: 400.0 mg/kg/injection, schedule: Q04DX002 (ip), vehicle: saline with Tween-80
  T/C: 102 % of control

## CNC(=O)N1CCOC1c1ccc(NC(=O)OC)cc1 (stereo not drawn)
[2]
  T/C: 96 % of control
[3]
  T/C: 90 % of control
[4]
  T/C: 95 % of control

## CC1(CCl)CC1(Cl)Cl (stereo not drawn)
[5]
  T/C: 103 % of control
[6]
  T/C: 103 % of control
[7]
  T/C: 104 % of control

## O=C(O)c1ccc(N2C(=O)CC3(CCCCC3)C2=O)cc1O
[1]
  T/C: 101 % of control
[8]
  T/C: 102 % of control
[9]
  T/C: 88 % of control

## C(=C1\Oc2ccccc2N=C1OCCN1CCOCC1)/c1ccccc1
[1]
  T/C: 97 % of control
[8]
  T/C: 99 % of control
[9]
  T/C: 98 % of control

## O=C(c1cc2c(cc1Br)OCO2)N1CCc2cc([N+](=O)[O-])ccc21
dose: 12.5 mg/kg/injection, schedule: Q01DX009 (ip), vehicle: other
  T/C: 118 % of control
dose: 25.0 mg/kg/injection, schedule: Q01DX009 (ip), vehicle: other
  T/C: 110 % of control
dose: 50.0 mg/kg/injection, schedule: Q01DX009 (ip), vehicle: other
  T/C: 105 % of control
dose: 200.0 mg/kg/injection, schedule: Q01DX009 (ip), vehicle: other
  T/C: 104 % of control

## CC(C)CC(NP(=S)(c1ccccc1)c1ccccc1)C(=O)O (stereo not drawn)
[10]
  T/C: 111 % of control
[11]
  T/C: 105 % of control
[12]
  T/C: 108 % of control

## COc1ccc(-c2cc3cc(CCCOC4OC(COC5OCC(O)C(O)C5O)C(O)C(O)C4O)cc(OC)c3o2)cc1OC (stereo not drawn)
dose: 18.75 mg/kg/injection, schedule: Q01DX005 (ip), vehicle: Klucel (hydroxypropylcellulose) (HPC)
  T/C: 96 % of control
dose: 37.5 mg/kg/injection, schedule: Q01DX005 (ip), vehicle: Klucel (hydroxypropylcellulose) (HPC)
  T/C: 88 % of control

## Oc1ccc2[nH]cc(CCNCC3(O)OCC(O)C(O)C3O)c2c1 (stereo not drawn)
dose: 60.0 mg/kg/injection, schedule: Q01DX005 (ip), vehicle: saline
  T/C: 98 % of control
dose: 120.0 mg/kg/injection, schedule: Q01DX005 (ip), vehicle: saline
  T/C: 101 % of control
dose: 240.0 mg/kg/injection, schedule: Q01DX005 (ip), vehicle: saline
  T/C: 91 % of control

## C=C(C)C1Cc2cc(C(C)=O)c(O)c(OC)c2O1 (stereo not drawn)
dose: 25.0 mg/kg/injection, schedule: Q01DX005 (ip), vehicle: Klucel (hydroxypropylcellulose) (HPC)
  T/C: 101 % of control
[13]
  T/C: 108 % of control
[14]
  T/C: 97 % of control
[15]
  T/C: 99 % of control

## CCCCCCCC#CC1(CCCC)Sc2ccccc2N1C (stereo not drawn)
[2]
  T/C: 105 % of control
[3]
  T/C: 110 % of control
[4]
  T/C: 113 % of control

## CC(=O)N1CCc2ccccc2C1C1NCCc2ccccc21 (stereo not drawn)
[1]
  T/C: 95 % of control
[8]
  T/C: 94 % of control

## CCC(=O)Nc1ccc(C(=O)NCCN(CC)CC)cc1
[13]
  T/C: 105 % of control
[14]
  T/C: 104 % of control
[15]
  T/C: 100 % of control

## CCN(CC)CCN1c2ccc(C)cc2Sc2ccc3ccccc3c21
dose: 50.0 mg/kg/injection, schedule: Q01DX005 (ip), vehicle: saline + Tween-80 + alcohol
  T/C: 112 % of control
dose: 100.0 mg/kg/injection, schedule: Q01DX005 (ip), vehicle: saline + Tween-80 + alcohol
  T/C: 102 % of control
dose: 200.0 mg/kg/injection, schedule: Q01DX005 (ip), vehicle: saline + Tween-80 + alcohol
  T/C: 114 % of control

## CCOC(=O)C1=C(N)C2CC(C)=C(C)CN2C1 (stereo not drawn)
dose: 50.0 mg/kg/injection, schedule: Q01DX005 (ip), vehicle: saline with Tween-80
  T/C: 98 % of control
dose: 100.0 mg/kg/injection, schedule: Q01DX005 (ip), vehicle: saline with Tween-80
  T/C: 100 % of control

## CC(=O)N[C@@H](Cc1ccc(N(CCCl)CCCl)cc1)C(=O)ON1C(=O)CCC1=O
dose: 5.8 mg/kg/injection, schedule: Q01DX009 (ip), vehicle: saline
  T/C: 168 % of control
dose: 5.8 mg/kg/injection, schedule: Q03HX008 (ip), vehicle: saline
  T/C: 160 % of control
dose: 11.6 mg/kg/injection, schedule: Q01DX009 (ip), vehicle: saline
  T/C: 190 % of control
dose: 11.6 mg/kg/injection, schedule: Q03HX008 (ip), vehicle: saline
  T/C: 195 % of control
dose: 23.2 mg/kg/injection, schedule: Q03HX008 (ip), vehicle: saline
  T/C: 260 % of control

## c1cc[c]([Sn][c]2ccccc2)cc1
dose: 2.5 mg/kg/injection, schedule: Q01DX009 (ip), vehicle: saline
  T/C: 151 % of control

## CC1N(C)c2cc3[nH]c(=O)cc(C(F)(F)F)c3cc2C1(C)C (stereo not drawn)
dose: 100.0 mg/kg/injection, schedule: Q01DX001 (ip), vehicle: Klucel (hydroxypropylcellulose) (HPC)
  T/C: 92 % of control and 96 % of control
dose: 200.0 mg/kg/injection, schedule: Q01DX001 (ip), vehicle: Klucel (hydroxypropylcellulose) (HPC)
  T/C: 103 % of control and 94 % of control
dose: 400.0 mg/kg/injection, schedule: Q01DX001 (ip), vehicle: Klucel (hydroxypropylcellulose) (HPC)
  T/C: 121 % of control

## Nc1n[nH]c(N)c1N=Nc1ccccc1
[10]
  T/C: 98 % of control
[11]
  T/C: 99 % of control
[12]
  T/C: 93 % of control
dose: 400.0 mg/kg/injection, schedule: Q01DX009 (ip), vehicle: Klucel (hydroxypropylcellulose) (HPC)
  T/C: 94 % of control

## CC(C)=CCc1c(C)c(O)c(C)c(C)c1O
dose: 12.5 mg/kg/injection, schedule: Q01DX009 (ip), vehicle: distilled water + Tween-80 + alcohol
  T/C: 100 % of control
dose: 25.0 mg/kg/injection, schedule: Q01DX009 (ip), vehicle: distilled water + Tween-80 + alcohol
  T/C: 92 % of control
dose: 50.0 mg/kg/injection, schedule: Q01DX009 (ip), vehicle: distilled water + Tween-80 + alcohol
  T/C: 100 % of control
dose: 100.0 mg/kg/injection, schedule: Q01DX009 (ip), vehicle: distilled water + Tween-80 + alcohol
  T/C: 95 % of control
dose: 200.0 mg/kg/injection, schedule: Q01DX009 (ip), vehicle: distilled water + Tween-80 + alcohol
  T/C: 104 % of control

## Cc1ccc(N2C(=O)C(C)SC23C(=O)Nc2ccc(Cl)cc23)cc1 (stereo not drawn)
[2]
  T/C: 91 % of control
[3]
  T/C: 96 % of control
[4]
  T/C: 100 % of control

## COCN(CCc1ccccc1)CCN(C)C
dose: 50.0 mg/kg/injection, schedule: Q01DX009 (ip), vehicle: saline
  T/C: 113 % of control
dose: 100.0 mg/kg/injection, schedule: Q01DX009 (ip), vehicle: saline
  T/C: 109 % of control

## Cc1c(N=Nc2ccccc2C(F)(F)F)c(-c2ccccc2)nn1C(=S)S
dose: 100.0 mg/kg/injection, schedule: Q01DX001 (ip), vehicle: saline with Tween-80
  T/C: 89 % of control
dose: 200.0 mg/kg/injection, schedule: Q01DX001 (ip), vehicle: saline with Tween-80
  T/C: 90 % of control
dose: 400.0 mg/kg/injection, schedule: Q01DX001 (ip), vehicle: saline with Tween-80
  T/C: 101 % of control

## Cn1c2c(c3ccccc3c1=O)C(=O)c1cccnc1-2
[5]
  T/C: 102 % of control
[6]
  T/C: 97 % of control
[7]
  T/C: 105 % of control
